Here are results for 15 compounds from PubChem BioAssay AID268 (DTP/NCI, 2004).

“And” between values parts separate entries of the source, which are not always exact repeats. Equal values may be shown once.

The subject of this test is CD2F1 mice, P1798 lymphosarcoma sc, tumor weight T/C. As to the kind of experiment: NCI In Vivo Anticancer Drug Screen. Data for tumor model P1798 Lymphosarcoma (subcutaneous) in CD2F1 (CDF1) mice. Particulars: endpoint: mean tumor weight, higher = larger tumour. The protocol: The antitumor activity of compounds was measured in mice bearing transplantable tumors. Survival or tumor size were measured and the results are expressed as the measurement made in the treated group (T) divided by the measurement made in the vehicle treated control group (C). The tumor model used in this assay is P1798 Lymphosarcoma (subcutaneous) in CD2F1 (CDF1) mice

[1] abbreviates: dose: 1.25 mg/kg/injection, schedule: Q01DX010 (ip), vehicle: saline.
The mark [2] stands for this setting: dose: 2.5 mg/kg/injection, schedule: Q01DX010 (ip), vehicle: saline.
The mark [3] stands for this setting: dose: 0.25 mg/kg/injection, schedule: Q01DX010 (ip), vehicle: saline.
The mark [4] stands for this setting: dose: 0.5 mg/kg/injection, schedule: Q01DX010 (ip), vehicle: saline.
Setting [5] is: dose: 1.0 mg/kg/injection, schedule: Q01DX010 (ip), vehicle: saline.
The mark [6] stands for this setting: dose: 2.0 mg/kg/injection, schedule: Q01DX010 (ip), vehicle: saline.
Setting [7] is: dose: 4.0 mg/kg/injection, schedule: Q01DX010 (ip), vehicle: saline.
[8] abbreviates: dose: 8.0 mg/kg/injection, schedule: Q01DX010 (ip), vehicle: saline.
Setting [9] is: dose: 5.0 mg/kg/injection, schedule: Q01DX010 (ip), vehicle: saline.
[10] abbreviates: dose: 10.0 mg/kg/injection, schedule: Q01DX010 (ip), vehicle: saline.
The mark [11] stands for this setting: dose: 20.0 mg/kg/injection, schedule: Q01DX010 (ip), vehicle: saline.

As a reminder, the T/C is the ratio of treated to control. In the case of `CC(=O)OCC(=O)[C@@]1(O)CC[C@H]2[C@@H]3CCC4=CC(=O)[C@H](C)C[C@]4(C)[C@H]3[C@@H](O)C[C@@]21C`, the T/C runs as follows: (dose: 0.78 mg/kg/injection, schedule: Q01DX Z (sc), vehicle: steriod suspending solution) 111 % of control; (dose: 1.56 mg/kg/injection, schedule: Q01DX Z (sc), vehicle: steriod suspending solution) 101 % of control; (dose: 3.13 mg/kg/injection, schedule: Q01DX Z (sc), vehicle: steriod suspending solution) 108 % of control; (dose: 6.25 mg/kg/injection, schedule: Q01DX Z (sc), vehicle: steriod suspending solution) 101 % of control and 88 % of control; (dose: 12.5 mg/kg/injection, schedule: Q01DX005 (sc), vehicle: steriod suspending solution) 61 % of control; (dose: 12.5 mg/kg/injection, schedule: Q01DX010 (sc), vehicle: steriod suspending solution) 33 % of control and 50 % of control. Besides, the T/C (dose: 12.5 mg/kg/injection, schedule: Q01DX Z (sc), vehicle: steriod suspending solution) is 96 % of control; the T/C (dose: 25.0 mg/kg/injection, schedule: Q01DX005 (sc), vehicle: steriod suspending solution) was 27 % of control; the T/C (dose: 25.0 mg/kg/injection, schedule: Q01DX Z (sc), vehicle: steriod suspending solution) was 73 % of control; the T/C (dose: 25.0 mg/kg/injection, schedule: Q02DX010 (sc), vehicle: steriod suspending solution) was 96 % of control; the T/C (dose: 25.0 mg/kg/injection, schedule: Q03DX004 (sc), vehicle: steriod suspending solution) is 65 % of control; the T/C (dose: 50.0 mg/kg/injection, schedule: Q01DX005 (sc), vehicle: steriod suspending solution) is 9 % of control. The T/C runs as follows: (dose: 50.0 mg/kg/injection, schedule: Q01DX Z (sc), vehicle: steriod suspending solution) 76 % of control; (dose: 50.0 mg/kg/injection, schedule: Q02DX010 (sc), vehicle: steriod suspending solution) 100 % of control; (dose: 50.0 mg/kg/injection, schedule: Q03DX004 (sc), vehicle: steriod suspending solution) 17 % of control; (dose: 100.0 mg/kg/injection, schedule: Q01DX005 (sc), vehicle: steriod suspending solution) 4 % of control; (dose: 100.0 mg/kg/injection, schedule: Q02DX010 (sc), vehicle: steriod suspending solution) 108 % of control; (dose: 100.0 mg/kg/injection, schedule: Q03DX004 (sc), vehicle: steriod suspending solution) 2 % of control.

Regarding `Nc1ncnc2c1ccn2C1OC(CO)C(O)C1O` (stereo not drawn), the T/C by setting is: (dose: 0.32 mg/kg/injection, schedule: Q01DX010 (ip), vehicle: saline) 97 % of control; (dose: 0.63 mg/kg/injection, schedule: Q01DX010 (ip), vehicle: saline) 101 % of control; under setting [1], 84 % of control.

Take `Cc1nc(N2CC2)nc(N2CC2)c1[N+](=O)[O-]`: the T/C under setting [1] is 63 % of control and 82 % of control; the T/C under setting [2] was 73 % of control and 84 % of control.

Regarding `CO[C@@]12[C@H](COC(N)=O)C3=C(C(=O)C(C)=C(N)C3=O)N1C[C@@H]1N[C@@H]12`, the T/C is 85 % of control under setting [3], 61 % of control under setting [4] and 36 % of control under setting [5].

Consider `CC(CCC(C)OS(C)(=O)=O)OS(C)(=O)=O` (stereo not drawn), for which the T/C under setting [6] was 101 % of control; the T/C under setting [7] is 59 % of control and 78 % of control; the T/C under setting [8] is 101 % of control and 82 % of control.

As to `CCOC(=O)NP(=O)(N1CC1)N1CC1`, the T/C under setting [9] is 64 % of control and the T/C under setting [10] is 55 % of control.

On to `C[C@@H]1C[C@@H]([C@H](O)CC2CC(=O)NC(=O)C2)C(=O)[C@@H](C)C1`, for which the T/C is, setting by setting: under setting [9], 80 % of control and 81 % of control; under setting [10], 99 % of control and 103 % of control; under setting [11], 63 % of control and 75 % of control; (dose: 40.0 mg/kg/injection, schedule: Q01DX010 (ip), vehicle: saline) 43 % of control and 60 % of control.

Take `O=C1C=CC2(CCC23C=CC(=O)O3)O1` (stereo not drawn): the T/C (dose: 13.0 mg/kg/injection, schedule: Q01DX011 (ip), vehicle: saline) was 74 % of control; the T/C (dose: 20.0 mg/kg/injection, schedule: Q01DX011 (ip), vehicle: saline) was 106 % of control; the T/C (dose: 45.0 mg/kg/injection, schedule: Q01DX011 (ip), vehicle: saline) is 108 % of control and 86 % of control; the T/C (dose: 65.0 mg/kg/injection, schedule: Q01DX011 (ip), vehicle: saline) was 103 % of control; the T/C (dose: 100.0 mg/kg/injection, schedule: Q01DX011 (ip), vehicle: saline) is 89 % of control.

With `Nc1nncs1`, the T/C is, setting by setting: (dose: 1.88 mg/kg/injection, schedule: Q01DX010 (ip), vehicle: saline) 93 % of control; (dose: 3.75 mg/kg/injection, schedule: Q01DX010 (ip), vehicle: saline) 68 % of control; (dose: 7.5 mg/kg/injection, schedule: Q01DX010 (ip), vehicle: saline) 69 % of control; (dose: 15.0 mg/kg/injection, schedule: Q01DX010 (ip), vehicle: saline) 52 % of control and 59 % of control; (dose: 30.0 mg/kg/injection, schedule: Q01DX010 (ip), vehicle: saline) 7 % of control.

For the compound `CC1(C)O[C@@H]2C[C@H]3[C@@H]4CCC5=CC(=O)C=C[C@]5(C)[C@@]4(F)[C@@H](O)C[C@]3(C)[C@]2(C(=O)CO)O1`, the T/C was 56 % of control (dose: 0.5 mg/kg/injection, schedule: Q01DX005 (sc), vehicle: steriod suspending solution); 59 % of control (dose: 1.0 mg/kg/injection, schedule: Q01DX005 (sc), vehicle: steriod suspending solution); 118 % of control (dose: 1.0 mg/kg/injection, schedule: Q01DX010 (sc), vehicle: steriod suspending solution); 101 % of control (dose: 1.0 mg/kg/injection, schedule: Q02DX010 (sc), vehicle: steriod suspending solution); 71 % of control (dose: 1.0 mg/kg/injection, schedule: Q03DX004 (sc), vehicle: steriod suspending solution); 33 % of control (dose: 2.0 mg/kg/injection, schedule: Q01DX005 (sc), vehicle: steriod suspending solution). The T/C reads like this: (dose: 2.0 mg/kg/injection, schedule: Q01DX010 (sc), vehicle: steriod suspending solution) 39 % of control; (dose: 2.0 mg/kg/injection, schedule: Q02DX010 (sc), vehicle: steriod suspending solution) 80 % of control; (dose: 2.0 mg/kg/injection, schedule: Q03DX004 (sc), vehicle: steriod suspending solution) 26 % of control; (dose: 3.75 mg/kg/injection, schedule: Q01DX010 (sc), vehicle: steriod suspending solution) 1 % of control; (dose: 4.0 mg/kg/injection, schedule: Q01DX005 (sc), vehicle: steriod suspending solution) 16 % of control; (dose: 4.0 mg/kg/injection, schedule: Q01DX010 (sc), vehicle: steriod suspending solution) 23 % of control. For the same compound, the T/C (dose: 4.0 mg/kg/injection, schedule: Q02DX010 (sc), vehicle: steriod suspending solution) is 113 % of control and the T/C (dose: 4.0 mg/kg/injection, schedule: Q03DX004 (sc), vehicle: steriod suspending solution) is 7 % of control.

In the case of `Cn1cnc([N+](=O)[O-])c1Sc1nc(N)nc2nc[nH]c12`, the T/C reads like this: under setting [2], 69 % of control; under setting [9], 75 % of control; under setting [10], 57 % of control; under setting [11], 54 % of control.

As to `Nc1nc(F)nc2c1ncn2C1OC(CO)C(O)C1O` (stereo not drawn), the T/C is 76 % of control under setting [4]; 94 % of control under setting [5]; 73 % of control under setting [6]; 62 % of control (dose: 3.0 mg/kg/injection, schedule: Q01DX010 (ip), vehicle: saline); 35 % of control under setting [7].

As for `O=C(NCCCCCCNC(=O)OCc1ccccc1)OCc1ccccc1`, the T/C runs as follows: (dose: 50.0 mg/kg/injection, schedule: Q01DX010 (ip), vehicle: saline) 102 % of control; (dose: 100.0 mg/kg/injection, schedule: Q01DX010 (ip), vehicle: saline) 119 % of control; (dose: 200.0 mg/kg/injection, schedule: Q01DX010 (ip), vehicle: saline) 94 % of control; (dose: 400.0 mg/kg/injection, schedule: Q01DX010 (ip), vehicle: saline) 123 % of control.

For `CC(=O)NC1=C(N2CC2)C(=O)C(NC(C)=O)=C(N2CC2)C1=O`, the T/C by setting is: under setting [3], 86 % of control; under setting [4], 45 % of control.

Consider `CN1CC[C@]23c4c5ccc(O)c4O[C@H]2C(=O)CC[C@H]3[C@H]1C5`, for which the T/C is, setting by setting: under setting [8], 94 % of control and 80 % of control; (dose: 16.0 mg/kg/injection, schedule: Q01DX010 (ip), vehicle: saline) 76 % of control and 79 % of control; (dose: 32.0 mg/kg/injection, schedule: Q01DX010 (ip), vehicle: saline) 74 % of control and 85 % of control; (dose: 64.0 mg/kg/injection, schedule: Q01DX010 (ip), vehicle: saline) 93 % of control and 70 % of control.
